Laboratory results reported in PubChem BioAssay AID248 (DTP/NCI, 2004).
Several values for one entry are separate records, joined by “and”; a condition that tells them apart may be missing. Identical values can stand only once. Toxic doses and inconclusive results are not listed. No stated cut-off is given here; in the data, active means T/C of 150% or more; inactive means T/C below 125%.

System: L1210 leukemia ip in BDF1 mice, survival T/C
Assay: NCI In Vivo Anticancer Drug Screen. Data for tumor model L1210 Leukemia (intraperitoneal) in B6D2F1 (BDF1) mice
Details: endpoint: mean survival time, higher = longer survival
Procedure, shortened: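 In this screen, tumor-bearing mice given compound are compared to those given vehicle, and their survival values are reported as a treated-to-control quotient.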

[1] = dose: 100.0 mg/kg/injection, schedule: Q04DX003 (ip), vehicle: saline with Tween-80
[2] = dose: 200.0 mg/kg/injection, schedule: Q04DX003 (ip), vehicle: saline with Tween-80
[3] = dose: 400.0 mg/kg/injection, schedule: Q04DX003 (ip), vehicle: saline with Tween-80
[4] = dose: 100.0 mg/kg/injection, schedule: Q01DX001 (ip), vehicle: carboxymethylcellulose (CMC)
[5] = dose: 200.0 mg/kg/injection, schedule: Q01DX001 (ip), vehicle: carboxymethylcellulose (CMC)
[6] = dose: 400.0 mg/kg/injection, schedule: Q01DX001 (ip), vehicle: carboxymethylcellulose (CMC)
[7] = dose: 100.0 mg/kg/injection, schedule: Q01DX009 (ip), vehicle: Klucel (hydroxypropylcellulose) (HPC)
[8] = dose: 100.0 mg/kg/injection, schedule: Q04DX003 (ip), vehicle: saline
[9] = dose: 200.0 mg/kg/injection, schedule: Q01DX009 (ip), vehicle: Klucel (hydroxypropylcellulose) (HPC)
[10] = dose: 200.0 mg/kg/injection, schedule: Q04DX003 (ip), vehicle: saline
[11] = dose: 100.0 mg/kg/injection, schedule: Q01DX001 (ip), vehicle: saline
[12] = dose: 200.0 mg/kg/injection, schedule: Q01DX001 (ip), vehicle: saline

Measured: T/C

CCC(CC)(CC)OC(=O)NS(=O)(=O)c1ccc(Cl)cc1
inactive: dose: 100.0 mg/kg/injection, schedule: Q01DX009 (ip), vehicle: acetone 107 % of control | [1] 120 % of control | [2] 104 % of control | [3] 109 % of control

CC(C)CCc1c(N)nc(N)nc1N
inactive: dose: 25.0 mg/kg/injection, schedule: Q04DX003 (ip), vehicle: Klucel (hydroxypropylcellulose) (HPC) 93 % of control | dose: 50.0 mg/kg/injection, schedule: Q04DX003 (ip), vehicle: Klucel (hydroxypropylcellulose) (HPC) 96 % of control

SC1(SC2(S)CCCCC2)CCCCC1
inactive: [1] 97 % of control | [2] 101 % of control | [3] 113 % of control

CN1CCN(CCN2CCN(CCCN3c4ccccc4Sc4ccc(Cl)cc43)CC2)C1=O
inactive: [4] 104 % of control

O=c1[nH]c2cc([N+](=O)[O-])ccc2c2ccc(Cl)cc12
inactive: [4] 102 % of control | [5] 91 % of control | [6] 95 % of control

O=S(=O)(O)c1ccc(Cl)cc1
inactive: [1] 96 % of control | [2] 104 % of control | [3] 106 % of control

O=C1N(O)C2(CCCC(O)C2O)C(=O)C12CCCCC2 (configuration not stated)
inactive: dose: 75.0 mg/kg/injection, schedule: Q01DX001 (ip), vehicle: saline 103 % of control | dose: 150.0 mg/kg/injection, schedule: Q01DX001 (ip), vehicle: saline 96 % of control | dose: 300.0 mg/kg/injection, schedule: Q01DX001 (ip), vehicle: saline 96 % of control

CCCCC(=C/C(C)(C)C)/C(=C/C(C)(C)C)CCCC
inactive: dose: 150.0 mg/kg/injection, schedule: Q01DX009 (ip), vehicle: saline 88 % of control | dose: 300.0 mg/kg/injection, schedule: Q01DX009 (ip), vehicle: saline 88 % of control

CC(=O)c1scc2c1CCCC2
inactive: dose: 25.0 mg/kg/injection, schedule: Q01DX001 (ip), vehicle: saline with Tween-80 94 % of control | dose: 50.0 mg/kg/injection, schedule: Q01DX001 (ip), vehicle: saline with Tween-80 96 % of control | dose: 100.0 mg/kg/injection, schedule: Q01DX001 (ip), vehicle: saline with Tween-80 96 % of control

CC(=O)OC1CC2CC(C1)C(C#N)C(=O)NC(=O)C2C#N (configuration not stated)
inactive: [4] 102 % of control | [5] 96 % of control | [6] 92 % of control

OCC1=C(CO)C2(Cl)C(Cl)=C(Cl)C1(Cl)C2(Cl)Cl
inactive: [7] 100 % of control | [8] 105 % of control | [9] 105 % of control | [10] 100 % of control | dose: 400.0 mg/kg/injection, schedule: Q01DX009 (ip), vehicle: Klucel (hydroxypropylcellulose) (HPC) 88 % of control | dose: 400.0 mg/kg/injection, schedule: Q04DX003 (ip), vehicle: saline 98 % of control

COc1ccccc1C(=O)N/N=C\c1c[nH]c2ccccc12
inactive: dose: 100.0 mg/kg/injection, schedule: Q04DX002 (ip), vehicle: Klucel (hydroxypropylcellulose) (HPC) 93 % of control | dose: 200.0 mg/kg/injection, schedule: Q04DX002 (ip), vehicle: Klucel (hydroxypropylcellulose) (HPC) 89 % of control | dose: 400.0 mg/kg/injection, schedule: Q04DX002 (ip), vehicle: Klucel (hydroxypropylcellulose) (HPC) 89 % of control

CC(=O)Nc1ccc(/C=C/C(=O)c2ccc(C)cc2)cc1
inactive: dose: 100.0 mg/kg/injection, schedule: Q01DX001 (ip), vehicle: Klucel (hydroxypropylcellulose) (HPC) 101 % of control | dose: 100.0 mg/kg/injection, schedule: Q04DX003 (ip), vehicle: Klucel (hydroxypropylcellulose) (HPC) 104 % of control | dose: 200.0 mg/kg/injection, schedule: Q01DX001 (ip), vehicle: Klucel (hydroxypropylcellulose) (HPC) 100 % of control | dose: 200.0 mg/kg/injection, schedule: Q04DX003 (ip), vehicle: Klucel (hydroxypropylcellulose) (HPC) 103 % of control | dose: 400.0 mg/kg/injection, schedule: Q01DX001 (ip), vehicle: Klucel (hydroxypropylcellulose) (HPC) 103 % of control | dose: 400.0 mg/kg/injection, schedule: Q04DX003 (ip), vehicle: Klucel (hydroxypropylcellulose) (HPC) 94 % of control

O=c1[nH]c(=O)c2cccnc2[nH]1
inactive: dose: 3.12 mg/kg/injection, schedule: Q01DX009 (ip), vehicle: saline 109 % of control | dose: 6.25 mg/kg/injection, schedule: Q01DX009 (ip), vehicle: saline 107 % of control | dose: 12.5 mg/kg/injection, schedule: Q01DX009 (ip), vehicle: saline 115 % of control | dose: 25.0 mg/kg/injection, schedule: Q01DX001 (ip), vehicle: saline 100 % of control | dose: 25.0 mg/kg/injection, schedule: Q01DX009 (ip), vehicle: saline 108 % of control | dose: 50.0 mg/kg/injection, schedule: Q01DX001 (ip), vehicle: saline 105 % of control | dose: 50.0 mg/kg/injection, schedule: Q01DX009 (ip), vehicle: saline 100 % of control | [11] 98 % of control and 100 % of control | dose: 100.0 mg/kg/injection, schedule: Q01DX009 (ip), vehicle: saline 94 % of control | [12] 98 % of control and 100 % of control

CCO[Si](C)(C)CCl
inactive: [11] 98 % of control | [12] 101 % of control | dose: 400.0 mg/kg/injection, schedule: Q01DX001 (ip), vehicle: saline 106 % of control

ON=C1CCC(CC2CCCCC2)CC1 (configuration not stated)
inactive: [1] 95 % of control | [2] 100 % of control | [3] 101 % of control

CCCC#CC(=O)OCC
inactive: dose: 100.0 mg/kg/injection, schedule: Q04DX002 (ip), vehicle: saline 91 % of control | dose: 200.0 mg/kg/injection, schedule: Q04DX002 (ip), vehicle: saline 97 % of control | dose: 400.0 mg/kg/injection, schedule: Q04DX002 (ip), vehicle: saline 89 % of control

CCCCN(C)/N=N/c1nc[nH]c1C(=O)OCC
inactive: [4] 96 % of control | [5] 109 % of control | [6] 124 % of control

COc1ccc(-c2nc(SCc3ccc(Cl)cc3)[nH]c(=O)c2CCO)cc1
inactive: dose: 50.0 mg/kg/injection, schedule: Q01DX009 (ip), vehicle: Klucel (hydroxypropylcellulose) (HPC) 95 % of control | [7] 101 % of control | [8] 111 % of control | [9] 96 % of control | [10] 95 % of control

CCOC(=O)c1cc(/C=C/C=O)oc1N
inactive: dose: 100.0 mg/kg/injection, schedule: Q04DX002 (ip), vehicle: saline with Tween-80 106 % of control | dose: 200.0 mg/kg/injection, schedule: Q04DX002 (ip), vehicle: saline with Tween-80 101 % of control | dose: 400.0 mg/kg/injection, schedule: Q04DX002 (ip), vehicle: saline with Tween-80 97 % of control
